Experimental data as given in patent US20230257372A1 (CHONG KUN DANG PHARMACEUTICAL CORP., priority 2020, published 2023).
Read-outs that look alike come from different tables or passages of the source.

Columns and labels:
human recombinant HDAC6 = target: T1, human recombinant HDAC6 (Homo sapiens, UniProt Q9UBN7); experiment: HDAC6 enzyme activity inhibition (HDAC Fluorimetric Drug Discovery Kit); type: biochemical
T1 construct: purchased Calbiochem Inc. 382180
T1 sequence (Q9UBN7 1-1215): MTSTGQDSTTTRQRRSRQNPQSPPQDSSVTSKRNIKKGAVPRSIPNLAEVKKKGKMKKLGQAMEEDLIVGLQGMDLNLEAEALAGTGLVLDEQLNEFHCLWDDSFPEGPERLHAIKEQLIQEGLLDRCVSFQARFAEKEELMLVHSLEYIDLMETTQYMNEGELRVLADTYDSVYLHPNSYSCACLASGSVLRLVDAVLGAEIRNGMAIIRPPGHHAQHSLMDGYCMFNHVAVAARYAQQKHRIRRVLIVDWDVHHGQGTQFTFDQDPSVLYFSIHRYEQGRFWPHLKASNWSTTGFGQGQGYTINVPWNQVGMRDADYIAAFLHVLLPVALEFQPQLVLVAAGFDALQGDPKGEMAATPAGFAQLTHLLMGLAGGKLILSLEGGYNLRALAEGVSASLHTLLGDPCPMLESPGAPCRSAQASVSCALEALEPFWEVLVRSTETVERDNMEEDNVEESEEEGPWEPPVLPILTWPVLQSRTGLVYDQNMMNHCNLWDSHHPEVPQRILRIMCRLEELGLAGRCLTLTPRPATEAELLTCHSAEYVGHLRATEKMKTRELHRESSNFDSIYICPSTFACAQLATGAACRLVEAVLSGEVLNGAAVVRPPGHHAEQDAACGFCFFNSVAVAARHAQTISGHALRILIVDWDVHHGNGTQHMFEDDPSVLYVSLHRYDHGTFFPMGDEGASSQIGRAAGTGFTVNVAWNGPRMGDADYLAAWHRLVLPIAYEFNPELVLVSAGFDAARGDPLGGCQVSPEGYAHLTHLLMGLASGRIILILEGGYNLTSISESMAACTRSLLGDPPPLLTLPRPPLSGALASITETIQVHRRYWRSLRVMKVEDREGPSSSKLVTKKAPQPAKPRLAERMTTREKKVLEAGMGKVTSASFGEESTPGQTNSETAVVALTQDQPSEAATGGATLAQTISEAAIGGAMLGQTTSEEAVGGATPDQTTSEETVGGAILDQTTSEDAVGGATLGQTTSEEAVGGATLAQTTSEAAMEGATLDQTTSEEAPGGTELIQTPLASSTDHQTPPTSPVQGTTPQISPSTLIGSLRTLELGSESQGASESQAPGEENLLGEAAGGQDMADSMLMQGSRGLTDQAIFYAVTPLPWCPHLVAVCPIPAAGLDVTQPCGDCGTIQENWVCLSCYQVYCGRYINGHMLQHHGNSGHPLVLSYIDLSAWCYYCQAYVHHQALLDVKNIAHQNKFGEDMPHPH
Outline: (§1)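 Fluorimetric deacetylase read-out: after 30 min with Developer II following a 60 min, 30° C reaction of recombinant enzyme ([…]) with 10 μM substrate, across five-fold serial compound dilutions.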

human recombinant HDAC1 = target: T2, human recombinant HDAC1 (Homo sapiens, UniProt Q13547); experiment: HDAC1 enzyme activity inhibition (HDAC Fluorimetric Drug Discovery Kit); type: biochemical; conditions: read-out: HDAC1
T2 construct: purchased Enzo Life Science, Inc. BML-SE456
Outline: as §1

[1] = human recombinant HDAC6, same protocol as HDAC1
[2] = human recombinant HDAC1, Fluor de Lys substrate, 30° C. 60 minutes
[3] = human recombinant HDAC6, IC50 calculated with GraphPad Prism
[4] = human recombinant HDAC1, IC50 calculated with GraphPad Prism

T2 sequence (Q13547 whole entry): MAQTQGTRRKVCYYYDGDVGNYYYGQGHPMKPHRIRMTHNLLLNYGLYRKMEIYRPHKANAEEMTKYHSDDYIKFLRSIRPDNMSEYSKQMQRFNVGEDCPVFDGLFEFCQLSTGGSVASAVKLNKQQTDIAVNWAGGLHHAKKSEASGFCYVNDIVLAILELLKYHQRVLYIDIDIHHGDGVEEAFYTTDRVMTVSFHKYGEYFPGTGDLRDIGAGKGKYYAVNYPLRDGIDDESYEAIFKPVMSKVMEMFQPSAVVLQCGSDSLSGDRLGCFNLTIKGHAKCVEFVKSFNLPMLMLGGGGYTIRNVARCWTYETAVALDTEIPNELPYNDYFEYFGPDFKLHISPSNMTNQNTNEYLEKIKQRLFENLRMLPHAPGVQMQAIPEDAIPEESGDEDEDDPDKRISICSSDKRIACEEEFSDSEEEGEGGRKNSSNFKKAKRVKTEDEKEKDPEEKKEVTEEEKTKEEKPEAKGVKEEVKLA

| HDAC6 selectivity (fold) (human recombinant HDAC6; HDAC6 over HDAC1) | IC50 (human recombinant HDAC6; [1]) | IC50 (human recombinant HDAC1; [2]) | HDAC6 selectivity (fold) (human recombinant HDAC6; HDAC1 IC50 / HDAC6 IC50) | IC50 (human recombinant HDAC6; [3]) | IC50 (human recombinant HDAC1; [4]) | SMILES |
| --- | --- | --- | --- | --- | --- | --- |
| 582 fold | 85.9 nM | > 50000 nM |  |  |  | Fc1cc(-c2nnc(C(F)F)o2)ccc1Cn1cc(-c2cccs2)nn1 [Compound 18258, 2-(difluoromethyl)-5-(3-fluoro-4-((4-(thiophen-2-yl)-1H-1,2,3-triazol-1-yl)methyl)phenyl)-1,3,4-oxadiazole] |
| 884 fold | 56.5 nM | > 50000 nM |  |  |  | Fc1cc(-c2nnc(C(F)F)o2)cnc1Cn1cc(-c2cccs2)nn1 [Compound 17984, 2-(difluoromethyl)-5-(5-fluoro-6-((4-(thiophen-2-yl)-1H-1,2,3-triazol-1-yl)methyl)pyridin-3-yl)-1,3,4-oxadiazole] |
|  |  |  | 896 fold | 55.8 nM | > 50000 nM | FC(F)c1nnc(-c2ccc(Cn3cc(-c4ccc(Br)nc4)nn3)nc2)o1 [Compound 4183, 2-(6-((4-(6-bromopyridin-3-yl)-1H-1,2,3-triazol-1-yl)methyl)pyridin-3-yl)-5-(difluoromethyl)-1,3,4-oxadiazole] |
| 524 fold | 95.4 nM | > 50000 nM |  |  |  | CN(C)Cc1ccc(-c2cn(Cc3ccc(-c4nnc(C(F)F)o4)cc3F)nn2)cc1Cl [Compound 18711, 1-(2-chloro-4-(1-(4-(5-(difluoromethyl)-1,3,4-oxadiazol-2-yl)-2-fluorobenzyl)-1H-1,2,3-triazol-4-yl)phenyl)-N,N-dimethylmethanamine] |
|  |  |  | 95 fold | 522 nM | > 50000 nM | FC(F)c1nnc(-c2ccc(Cn3cc(C4CN(C5COC5)C4)nn3)nc2)o1 [Compound 3955, 2-(difluoromethyl)-5-(6-((4-(1-(oxetan-3-yl)azetidin-3-yl)-1H-1,2,3-triazol-1-yl)methyl)pyridin-3-yl)-1,3,4-oxadiazole] |
|  |  |  | 52 fold | 945 nM | > 50000 nM | Fc1cc(-c2nnc(C(F)F)o2)ccc1Cn1cc(-c2cc(C(F)(F)F)cc(C(F)(F)F)c2)nn1 [Compound 3696, 2-(4-((4-(3,5-bis(trifluoromethyl)phenyl)-1H-1,2,3-triazol-1-yl)methyl)-3-fluorophenyl)-5-(difluoromethyl)-1,3,4-oxadiazole] |
| 1146 fold | 43.6 nM | > 50000 nM |  |  |  | Fc1cc(-c2nnc(C(F)F)o2)ccc1Cn1cc(-c2ccc(CN3CCC3)c(Cl)c2)nn1 [Compound 18712] |
| 313 fold | 160 nM | > 50000 nM |  |  |  | Fc1cc(-c2nnc(C(F)F)o2)ccc1Cn1cc(-c2cccc(N3CCN(CC4(F)CC4)CC3)c2F)nn1 [Compound 4602, 2-(difluoromethyl)-5-(3-fluoro-4-((4-(2-fluoro-3-(4-((1-fluorocyclopropyl)methyl)piperazin-1-yl)phenyl)-1H-1,2,3-triazol-1-yl)methyl)phenyl)-1,3,4-oxadiazole] |
| 2564 fold | 19.5 nM | > 50000 nM |  |  |  | Fc1c(-c2cn(Cc3ccc(-c4nnc(C(F)F)o4)cn3)nn2)cccc1N1CCN(C2CCC2)CC1 [Compound 4572, 2-(6-((4-(3-(4-cyclobutylpiperazin-1-yl)-2-fluorophenyl)-1H-1,2,3-triazol-1-yl)methyl)pyridin-3-yl)-5-(difluoromethyl)-1,3,4-oxadiazole] |
| 2688 fold | 18.6 nM | > 50000 nM |  |  |  | CCN1CCN(c2cccc(-c3cn(Cc4ccc(-c5nnc(C(F)F)o5)cc4F)nn3)c2F)CC1 [Compound 4577, 2-(difluoromethyl)-5-(4-((4-(3-(4-ethylpiperazin-1-yl)-2-fluorophenyl)-1H-1,2,3-triazol-1-yl)methyl)-3-fluorophenyl)-1,3,4-oxadiazole] |
| 639 fold | 78.2 nM | > 50000 nM |  |  |  | CN(C)Cc1cccc(-c2cn(Cc3ncc(-c4nnc(C(F)F)o4)cc3F)nn2)c1Cl [Compound 19088, 1-(2-chloro-3-(1-((5-(5-(difluoromethyl)-1,3,4-oxadiazol-2-yl)-3-fluoropyridin-2-yl)methyl)-1H-1,2,3-triazol-4-yl)phenyl)-N,N-dimethylmethanamine] |
|  |  |  | 253 fold | 198 nM | > 50000 nM | FC(F)c1nnc(-c2ccc(Cn3cc(C4CCN(C5COC5)CC4)nn3)nc2)o1 [Compound 3809, 2-(difluoromethyl)-5-(6-((4-(1-(oxetan-3-yl)piperidin-4-yl)-1H-1,2,3-triazol-1-yl)methyl)pyridin-3-yl)-1,3,4-oxadiazole] |
|  |  |  | 41 fold | 1200 nM | > 50000 nM | Cn1c(Cc2ccc(-c3nnc(C(F)F)o3)cc2)nnc1-c1ccccc1 [Compound 3981, 2-(difluoromethyl)-5-(4-((4-methyl-5-phenyl-4H-1,2,4-triazol-3-yl)methyl)phenyl)-1,3,4-oxadiazole] |
| 626 fold | 79.8 nM | > 50000 nM |  |  |  | Fc1cc(-c2nnc(C(F)F)o2)ccc1Cn1cc(-c2ccc(C3CN(C4COC4)C3)cc2)nn1 [Compound 17700, 2-(difluoromethyl)-5-(3-fluoro-4-((4-(4-(1-(oxetan-3-yl)azetidin-3-yl)phenyl)-1H-1,2,3-triazol-1-yl)methyl)phenyl)-1,3,4-oxadiazole] |
| 2380 fold | 21 nM | > 50000 nM |  |  |  | CN(C)[C@@H]1CCN(Cc2ccc(-c3cn(Cc4ccc(-c5nnc(C(F)F)o5)cc4F)nn3)cc2)C1 [Compound 4605, (R)-1-(4-(1-(4-(5-(difluoromethyl)-1,3,4-oxadiazol-2-yl)-2-fluorobenzyl)-1H-1,2,3-triazol-4-yl)benzyl)-N,N-dimethylpyrrolidin-3-amine] |
|  |  |  | 103 fold | 483 nM | > 50000 nM | OCc1c(-c2ccccc2)nnn1Cc1ccc(-c2nnc(C(F)F)o2)cc1F [Compound 4479, (1-(4-(5-(difluoromethyl)-1,3,4-oxadiazol-2-yl)-2-fluorobenzyl)-4-phenyl-1H-1,2,3-triazol-5-yl)methanol] |
|  |  |  | 308 fold | 162 nM | > 50000 nM | CC(C)(C)OC(=O)N1CC(c2cn(Cc3ccc(-c4nnc(C(F)F)o4)cn3)nn2)C1 [Compound 3926, Tert-butyl 3-(1-((5-(5-(difluoromethyl)-1,3,4-oxadiazol-2-yl)pyridin-2-yl)methyl)-1H-1,2,3-triazol-4-yl)azetidin-1-carboxylate] |
|  |  |  | 2392 fold | 20.9 nM | > 50000 nM | CCCN1CCC(Nc2cccc(-c3cn(Cc4ccc(-c5nnc(C(F)F)o5)cc4F)nn3)c2F)CC1 [Compound 4434, N-(3-(1-(4-(5-(difluoromethyl)-1,3,4-oxadiazol-2-yl)-2-fluorobenzyl)-1H-1,2,3-triazol-4-yl)-2-fluorophenyl)-1-propylpiperidin-4-amine] |
| 2475 fold | 20.2 nM | > 50000 nM |  |  |  | CCN1CCN(c2cccc(-c3cn(Cc4ccc(-c5nnc(C(F)F)o5)cn4)nn3)c2F)CC1 [Compound 4570, 2-(difluoromethyl)-5-(6-((4-(3-(4-ethylpiperazin-1-yl)-2-fluorophenyl)-1H-1,2,3-triazol-1-yl)methyl)pyridin-3-yl)-1,3,4-oxadiazole] |
|  |  |  | 357 fold | 140 nM | > 50000 nM | CCOC(=O)N1CCC(c2cn(Cc3ccc(-c4nnc(C(F)F)o4)cn3)nn2)CC1 [Compound 3892, Ethyl4-(1-((5-(5-(difluoromethyl)-1,3,4-oxadiazol-2-yl)pyridin-2-yl)methyl)-1H-1,2,3-triazol-4-yl)piperidin-1-carboxylate] |
| 313 fold | 160 nM | > 50000 nM |  |  |  | CN1Cc2cccc(-c3cn(Cc4ccc(-c5nnc(C(F)F)o5)cc4)nn3)c2C1 [Compound 4529, 2-(difluoromethyl)-5-(4-((4-(2-methylisoindolin-4-yl)-1H-1,2,3-triazol-1-yl)methyl)phenyl)-1,3,4-oxadiazole] |
